In US20060281110A1, “Methods to identify antimicrobial compounds that interrupt ribosome biogenesis” (MICHIGAN STATE UNIVERSITY, priority 2005, published 2006):

Columns and labels:
45S intermediate = experiment: In vitro association of YlqF-His6 with ribosomal particles (sucrose gradient, Western blot); assay type: binding, B. subtilis; details: incubated 10 minutes at 37° C.; 10-25% sucrose gradient; FIG. 16
Protocol: (§1) The data was collected from 12% SDS-PAGE electrophoresis and blotted to a nylon membrane using standard Western Blot analysis. Incubations using rabbit polyclonal YlqF antibody was followed by horseradish peroxidase-conjugated goat anti-rabbit antibody and Western Lightning® (PerkinElmer) chemiluminescent detection. Purified YlqF-His6 was added as a comparative marker.
(§2) A B. subtilis strain was constructed that expresses a YlqF-His6 fusion protein as the only functional YlqF copy in the cell. […] The YlqF-His6 fusion protein was purified and tested for association with purified 45S intermediates and mature 50S subunits. YlqF-His6 and either the 45S intermediate or 50S subunits were mixed and incubated for 10 minutes at 37° C. The mixtures were then fractionated on 10-25% sucrose gradients and individual fractions corresponding to the 45S and 50S peaks were collected. […] Although it is not necessary to understand the mechanism of an invention, it is believed that YlqF functions as a factor involved in the biogenesis of the 50S subunit.

50S subunit = details: incubated 10 minutes at 37° C.; 10-25% sucrose gradient; FIG. 16
Protocol: as §1, §2

YlqF-His6: purified His6 fusion to the C-terminus of B. subtilis GTPase YlqF
binding to 45S intermediate (45S intermediate): able to bind the 45S intermediate
binding to mature 50S subunit (50S subunit): not the 50S subunit
